Marks after values point to notes of the source that are not given here.

In data set [1] the test system is rabbit eye (conjunctiva). As to the kind of experiment: Severe eye irritation test using rabbits. Type of data set: in vivo. The following applies: 1%, instillation six times per day at 30 min intervals for two days.
Data set [2] concerns allergic rhinitis. As to the kind of experiment: Prophylactic effect on allergic rhinitis, oral administration. Type of data set: in vivo, rat. As to conditions: 15 min before antigen administration. How it is done: The prophylactic effect of compound B on allergic rihinitis in the same manner as in Test Example 4-1, except that compound B was suspended in hydroxypropylmethylcellulose and the suspension was orally administered. The medicament was administered 15 min before the administration of the antigin (start of allergy).

For data set [3] the following is noted: WO 99/16770; cited from earlier work.

`COc1cc2[nH]c(=O)c3nn(C(OC(=O)OC(C)C)C(C)C)nc3c(=O)c2cc1OC` (stereo not shown) [Compound B, 2-(1-Isopropoxycarbonyloxy-2-methylpropyl)-7,8-dimethoxy-4(5H),10-dioxo-2H-1,2,3-triazolo[4,5-c][1]benzazepine]: the eye irritation entry in data set [1] is “only slight reddening of the conjunctiva was observed”. Moreover, the “Increase in dye leakage amount Inhibition ratio” value was found to be 46.3% ** in data set [2] (1 mg/kg (200 μg/rat)) and 81.9% ** in data set [2] (5 mg/kg (1000 μg/rat)). For the same compound, the “improvement of absorption upon oral administration as compared with compound A” value in data set [3] is “by a factor of seven”.
